{"source": "patent US12076305B2", "about": "“Compositions comprising a conjugate of quinic acid with caffeic acid, cosmetic and therapeutic uses” (CALSCIENCE INTERNATIONAL LTD, priority 2013, dated 2024)", "key": {"[1]": {"system": "Human Foreskin Fibroblasts (HFFs)", "assay": "WST-1 Cell Proliferation Assay in HFFs", "format": "cell-based", "settings": "1/1000 and 2/1000 dilutions", "description": "The WST-1 Cell Proliferation Assay provides a sensitive and accurate assay for cell proliferation and cytotoxicity (cell viability). The WST assay is based on the cleavage of the tetrazolium salt WST-1 to formazan by cellular mitochondrial dehydrogenases. Expansion in the number of viable cells results in an increase in the overall activity of the mitochondrial dehydrogenases in the sample. The augmentation in enzyme activity results in an increase in the amount of formazan dye formed. The formazan dye produced by viable cells was quantified by a multi-well spectrophotometer by measuring the absorbance of the dye solution at 440 nm. The compound provided was tested in the WST assay over a range of dilutions. […] The results of the assay show the standard deviation (SD) for 1,5-DCQA (2066) and the control, and the mean values for 1,5-DCQA (2066) and the control."}, "[2]": {"system": "p16", "assay": "Taqman Real Time-PCR expression of p16 in HFFs with/without H2O2 stress-induced premature senescence", "format": "cell-based, Human", "settings": "for ddct (1.275) (P16) / Relative Expression of P16 / dCt (P16) / P16 (Ct): 1/1000 dilution; for dCt (P16): vs HPRT", "description": "(§1) The following results shown in FIGS. 2 to 7 relate to the analysis of Senescence tests on compound 2066 (1,5-dicaffeoylquinic acid or 1,5-DCQA). The experiments were conducted using Human Foreskin Fibroblasts (HFFs).\n(§2) In the following experiments, HFFs were challenged for a period of two hours with 150 μM hydrogen peroxide (H2O2), to stimulate premature senescence in the presence and absence of 1,5-Dicaffeoylquinic acid (1/1000 dilution), and subsequently assayed by Taqman Real Time-PCR for the expression of key senescence associated genes.\n(§3) The results shown in Table 2 and FIGS. 2 to 7 were generated using the polymerase chain reaction (PCR), wherein the dCt and ddCT values are results used in statistical analysis. The abbreviation dCt relates to “delta cycle threshold” and the abbreviation ddCt relates to “delta delta cycle threshold”. In these experiments, HPRT (hypoxanthine phosphoribosyltransferase, a protein from the HPRT-1 gene) was used as a control."}, "[3]": {"system": "p21", "assay": "Taqman Real Time-PCR expression of p21 in HFFs with/without H2O2 stress", "format": "cell-based, Human", "settings": "for ddct (−3.761) (P21) / Relative Expression of P21 / dCt (P21) / P21 (Ct): 1/1000 dilution; for dCt (P21): vs HPRT", "description": "as §1, §2, §3"}, "[4]": {"system": "Sirtuin 2 (SIRT2)", "assay": "Taqman Real Time-PCR expression of Sirtuin 2 in HFFs with/without H2O2 stress", "format": "cell-based, Human", "settings": "for ddct (−0.016) (SIRT2) / Relative Expression of SIRT2 / dCt (SIRT2) / SIRT2 (Ct): 1/1000 dilution; for dCt (SIRT2): vs HPRT", "description": "as §1, §2\n(§4) These genes are involved in cell cycle regulation and mitochondrial stress responses. Challenge with a near lethal level of oxidant stress typically induces an increase in SIRT2 and decrease in SIRT3 expression. […] This is indicative of each having a potential for stimulating cell proliferation in the absence of oxidant challenge.\nas §3"}, "[5]": {"system": "Sirtuin 3 (SIRT3)", "assay": "Taqman Real Time-PCR expression of Sirtuin 3 in HFFs with/without H2O2 stress", "format": "cell-based, Human", "settings": "for ddct (−2.079) (SIRT3) / Relative Expression of SIRT3 / dCt (SIRT3) / SIRT3 (Ct): 1/1000 dilution; for dCt (SIRT3): vs HPRT", "description": "as §1, §2, §4, §3"}, "[6]": {"system": "XRCC5", "assay": "Taqman Real Time-PCR expression of XRCC5 in HFFs with/without H2O2 stress", "format": "cell-based, Human", "settings": "for ddct (−1.292) (XRCC5) / Relative Expression of XRCC5 / dCt (XRCC5) / XRCC5 (Ct): 1/1000 dilution; for dCt (XRCC5): vs HPRT", "description": "as §1, §2\nXRCC5 is a double strand break repair protein.\nas §3"}, "[7]": {"system": "hPOT1", "assay": "Taqman Real Time-PCR expression of hPOT1 in HFFs with/without H2O2 stress", "format": "cell-based, Human", "settings": "for ddct (−1.835) (hPOT1) / Relative Expression of hPOT1 / dct (hPOT1) / HPOT1 (Ct): 1/1000 dilution; for dct (hPOT1): vs HPRT", "description": "as §1, §2\nThese findings are supported by an analysis of the Protection of Telomeres gene (POT 1).\nas §3"}, "[8]": {"system": "p65", "assay": "Western blot of LNCaP cell extracts probed for p65", "format": "cell-based", "settings": "LNCaP cells; 24 hours; 0.1, 1, 3, 10, 30, 100 μM", "description": "(§5) Lanes 1 and 2 of the Western blot show the expression levels Hela control lysates comprising TNF-alpha (TNFα), in stimulated and unstimulated conditions. Lanes 3 and 4 show the results of LNCaP cell extracts, in stimulated and unstimulated conditions. In this case, the vehicle used is ethanol. Lanes 5 to 10 show the results of LNCaP cell extracts incubated for 24 hours in 0.1, 1, 3, 10, 30, 100 μM of 1,5-DCQA, respectively. Tubulin (50kD) was used as a loading control."}, "[9]": {"system": "Pp65 (ser 536)", "assay": "Western blot of LNCaP cell extracts probed for Pp65 (ser 536)", "format": "cell-based", "settings": "LNCaP cells; 24 hours; 0.1, 1, 3, 10, 30, 100 μM", "description": "as §5"}, "[10]": {"system": "MMP-9", "assay": "Western blot of LNCaP cell extracts probed for MMP-9", "format": "cell-based", "settings": "LNCaP cells; 24 hours; at 0.1 μM to 100 μM", "description": "as §5"}, "[11]": {"settings": "& stress (150 μM H2O2, two hours)"}, "[12]": {"settings": "HFFs, & stress (150 μM H2O2, two hours)"}}}
{"smiles": "O=C(/C=C/c1ccc(O)c(O)c1)O[C@@H]1C[C@](OC(=O)/C=C/c2ccc(O)c(O)c2)(C(=O)O)C[C@@H](O)[C@H]1O", "note": "[1,5-DCQA, 1,5-dicaffeoylquinic acid]", "values": [{"measurement": "cell viability (WST-1)", "setting": "[1]", "value": "beneficial to cell viability"}, {"measurement": "protection of p16 expression from oxidant challenge", "setting": "[2]; 150 μM H2O2", "value": "excellent protection from oxidant challenge"}, {"measurement": "ddct (1.275) (P16)", "setting": "[2]; & stress (150 μM H2O2)", "value": "−0.519"}, {"measurement": "Relative Expression of P16", "setting": "[2]; & stress (150 μM H2O2), media = 1.000, stress alone 3.151", "value": 1.433}, {"measurement": "dCt (P16)", "setting": "[2]; & stress (150 μM H2O2)", "value": 0.756}, {"measurement": "P16 (Ct)", "setting": "[2]; [11]", "value": 28.09}, {"measurement": "P16 (Ct)", "setting": "[2]; no stress", "value": 27.66}, {"measurement": "ddct (1.275) (P16)", "setting": "[2]; no stress", "value": 0.050}, {"measurement": "Relative Expression of P16", "setting": "[2]; no stress, media = 1.000", "value": 0.966}, {"measurement": "dCt (P16)", "setting": "[2]; no stress", "value": 1.325}, {"measurement": "effect on p16 expression in untreated cells", "setting": "[2]; no H2O2", "value": "no stress effect"}, {"measurement": "p21 expression levels following stress", "setting": "[3]; 150 μM H2O2", "value": "substantially unchanged"}, {"measurement": "ddct (−3.761) (P21)", "setting": "[3]; & stress (150 μM H2O2)", "value": "−2.263"}, {"measurement": "Relative Expression of P21", "setting": "[3]; & stress (150 μM H2O2), media = 1.000, stress alone 4.519", "value": 4.801}, {"measurement": "dCt (P21)", "setting": "[3]; & stress (150 μM H2O2)", "value": "−6.024"}, {"measurement": "P21 (Ct)", "setting": "[3]; [11]", "value": 21.31}, {"measurement": "P21 (Ct)", "setting": "[3]; no stress", "value": 22.4}, {"measurement": "ddct (−3.761) (P21)", "setting": "[3]; no stress", "value": "−0.167"}, {"measurement": "Relative Expression of P21", "setting": "[3]; no stress, media = 1.000", "value": 1.122}, {"measurement": "dCt (P21)", "setting": "[3]; no stress", "value": "−3.928"}, {"measurement": "ddct (−0.016) (SIRT2)", "setting": "[4]; HFFs, & stress (150 μM H2O2)", "value": 0.371}, {"measurement": "Relative Expression of SIRT2", "setting": "[4]; HFFs, & stress (150 μM H2O2), media = 1.000, stress alone 0.762", "value": 0.773}, {"measurement": "dCt (SIRT2)", "setting": "[4]; HFFs, & stress (150 μM H2O2)", "value": 0.387}, {"measurement": "SIRT2 (Ct)", "setting": "[4]; [12]", "value": 27.72}, {"measurement": "SIRT2 (Ct)", "setting": "[4]; HFFs, no stress", "value": 27.16}, {"measurement": "ddct (−0.016) (SIRT2)", "setting": "[4]; HFFs, no stress", "value": 0.817}, {"measurement": "Relative Expression of SIRT2", "setting": "[4]; HFFs, no stress, media = 1.000", "value": 0.568}, {"measurement": "dCt (SIRT2)", "setting": "[4]; HFFs, no stress", "value": 0.833}, {"measurement": "change in SIRT2 expression", "setting": "[4]; HFFs, without stress", "value": "significant decrease"}, {"measurement": "down regulation of SIRT2 expression", "setting": "[4]; normal fibroblasts", "value": "approximately 52%"}, {"measurement": "ddct (−2.079) (SIRT3)", "setting": "[5]; HFFs, & stress (150 μM H2O2)", "value": "−0.120"}, {"measurement": "Relative Expression of SIRT3", "setting": "[5]; HFFs, & stress (150 μM H2O2), media = 1.000, stress alone 0.794", "value": 1.086}, {"measurement": "dCt (SIRT3)", "setting": "[5]; HFFs, & stress (150 μM H2O2)", "value": 1.959}, {"measurement": "SIRT3 (Ct)", "setting": "[5]; [12]", "value": 29.3}, {"measurement": "SIRT3 (Ct)", "setting": "[5]; HFFs, no stress", "value": 28.56}, {"measurement": "ddct (−2.079) (SIRT3)", "setting": "[5]; HFFs, no stress", "value": 0.148}, {"measurement": "Relative Expression of SIRT3", "setting": "[5]; HFFs, no stress, media = 1.000", "value": 0.903}, {"measurement": "dCt (SIRT3)", "setting": "[5]; HFFs, no stress", "value": 2.227}, {"measurement": "change in SIRT3 expression", "setting": "[5]; HFFs, following oxidant challenge", "value": "increase"}, {"measurement": "up regulation of SIRT3 expression", "setting": "[5]; senescent fibroblasts", "value": "approximately 36%"}, {"measurement": "induction of DNA breaks (from XRCC5 expression)", "setting": "[6]", "value": "does not induce DNA breaks"}, {"measurement": "ddct (−1.292) (XRCC5)", "setting": "[6]; & stress (150 μM H2O2)", "value": "−0.141"}, {"measurement": "Relative Expression of XRCC5", "setting": "[6]; & stress (150 μM H2O2), media = 1.000, stress alone 2.237", "value": 1.103}, {"measurement": "dCt (XRCC5)", "setting": "[6]; & stress (150 μM H2O2)", "value": "−1.433"}, {"measurement": "XRCC5 (Ct)", "setting": "[6]; [11]", "value": 25.9}, {"measurement": "XRCC5 (Ct)", "setting": "[6]; no stress", "value": 25.48}, {"measurement": "ddct (−1.292) (XRCC5)", "setting": "[6]; no stress", "value": 0.444}, {"measurement": "Relative Expression of XRCC5", "setting": "[6]; no stress, media = 1.000", "value": 0.735}, {"measurement": "dCt (XRCC5)", "setting": "[6]; no stress", "value": "−0.848"}, {"measurement": "expression of XRCC5 in comparison with the control data set", "setting": "[6]; with and without 150 μM H2O2", "value": "substantially unaltered"}, {"measurement": "effect on hPOT1 expression against oxidant challenge", "setting": "[7]; 150 μM H2O2", "value": "protective effect"}, {"measurement": "ddct (−1.835) (hPOT1)", "setting": "[7]; & stress (150 μM H2O2)", "value": 0.405}, {"measurement": "Relative Expression of hPOT1", "setting": "[7]; & stress (150 μM H2O2), media = 1.000, stress alone 1.625", "value": 0.755}, {"measurement": "dct (hPOT1)", "setting": "[7]; & stress (150 μM H2O2)", "value": 2.240}, {"measurement": "HPOT1 (Ct)", "setting": "[7]; [11]", "value": 29.5758}, {"measurement": "HPOT1 (Ct)", "setting": "[7]; no stress", "value": 29.47}, {"measurement": "ddct (−1.835) (hPOT1)", "setting": "[7]; no stress", "value": 1.306}, {"measurement": "Relative Expression of hPOT1", "setting": "[7]; no stress, media = 1.000", "value": 0.404}, {"measurement": "dct (hPOT1)", "setting": "[7]; no stress", "value": 3.141}, {"measurement": "inhibition of the expression of p65", "setting": "[8]", "value": "does not inhibit"}, {"measurement": "inhibition of the phosphorylation of p65", "setting": "[9]", "value": "does inhibit"}, {"measurement": "inhibition of MMP-9", "setting": "[10]", "value": "clearly demonstrated"}]}
